Laboratory results reported in patent US20110028447A1, “INDAZOLE DERIVATIVES” (Pfizer Inc., priority 2008, published 2011).
Like-named read-outs stand apart in the source and are kept apart here.

Key:
[1] = target: T1, human CB1 receptor (Homo sapiens, UniProt P21554); test: [35S] GTPγS binding on membranes of CHO cells expressing the human CB1 receptor (agonism); assay type: biochemical; set-up: expressed in transfected cells; membrane preparation
Summary of the method: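 Membranes from human CB1-expressing CHO cells (5 μg/well) incubated with test compound and [35S]GTPγS in 50 mM Tris pH 7.4, 100 mM NaCl, 3 mM MgCl2, 0.2 mM EGTA, 0.04% BSA for 45 min at 37 °C. Bound label collected by filtration, scintillation counted; EC50 from curve fits.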

[2] = target: T1, human CB1 receptor; test: Human CB1 receptor binding, [3H] CP-55,940 displacement on HEK cell membranes; set-up: expressed in transfected cells; host or cells: HEK cells, doxycycline-induced; membrane preparation
Summary of the method: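 Membranes from doxycycline-induced HEK cells expressing human CB1 incubated 60 min at room temperature with [3H] CP-55,940 (final […]) in 50 mM Tris pH 7.4, 100 mM NaCl, 3 mM MgCl2, 0.2 mM EGTA, 0.04% BSA. Nonspecific binding defined with 50 μM WIN-55,212-2; filtration and scintillation counting gave EC50 and Ki.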

[3] = GTPγS EC50, human CB1, CHO cell membranes
[4] = human CB1, CHO cell membranes, read-out: GTPγS EC50

T1 sequence (P21554 whole entry): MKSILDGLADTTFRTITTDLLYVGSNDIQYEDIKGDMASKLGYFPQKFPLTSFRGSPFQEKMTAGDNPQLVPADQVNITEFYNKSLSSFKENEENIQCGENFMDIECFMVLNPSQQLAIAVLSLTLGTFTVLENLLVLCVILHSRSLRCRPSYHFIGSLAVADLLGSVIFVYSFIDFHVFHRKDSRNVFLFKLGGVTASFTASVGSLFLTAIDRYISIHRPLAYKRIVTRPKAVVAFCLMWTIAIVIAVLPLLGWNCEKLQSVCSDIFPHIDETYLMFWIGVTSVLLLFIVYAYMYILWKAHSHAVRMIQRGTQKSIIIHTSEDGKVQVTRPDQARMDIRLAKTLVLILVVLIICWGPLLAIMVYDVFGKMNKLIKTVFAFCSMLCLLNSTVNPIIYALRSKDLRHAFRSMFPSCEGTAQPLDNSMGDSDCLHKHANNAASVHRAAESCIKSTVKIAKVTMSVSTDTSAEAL

| SMILES | EC50 [1, 3] | Ki ([2]; CB1 Ki) | EC50 [1, 4] | Ki ([2]; read-out: CB1 Ki) |
| --- | --- | --- | --- | --- |
| CC(C)(C)[C@H](NC(=O)c1nn(Cc2ccc(F)cc2)c2ccccc12)C(=O)NCc1nn[nH]n1 [Example 218] | 360 nM | 7.92 nM | – | – |
| CC(C)(C)[C@H](NC(=O)c1nn(Cc2ccc(F)cc2)c2ccccc12)C(=O)N1CCN(C(N)=O)CC1 [Example 220] | – | – | 3.78 nM | 1.26 nM |
| CC(C)(C)[C@H](NC(=O)c1nn(Cc2ccc(F)cc2)c2ccccc12)C(=O)N1CCC(CO)CC1 [Example 223] | 4.76 nM | 1.12 nM | – | – |
| CC(C)(C)[C@H](NC(=O)c1nn(Cc2ccc(F)cc2)c2ccccc12)C(=O)N1CCC(CCO)CC1 [Example 224] | – | – | 19.3 nM | 6.77 nM |
| CC(C)(C)[C@H](NC(=O)c1nn(Cc2ccc(F)cc2)c2ccccc12)C(=O)N1CCC(C(N)=O)CC1 [Example 225] | – | – | 26.9 nM | 6.3 nM |
| CC(C)(C)[C@H](NC(=O)c1nn(Cc2ccc(F)cc2)c2c(Cl)cc(Cl)cc12)C(N)=O [Example 226] | 0.73 nM | 0.18 nM | – | – |
| CC(C)(C)[C@H](NC(=O)c1nn(Cc2ccc(F)cc2)c2ccccc12)C(=O)N1CCN(C(=O)CCC(N)=O)CC1 [Example 228] | – | – | 15.1 nM | 4.26 nM |
| CC(C)(C)[C@H](NC(=O)c1nn(Cc2ccc(F)cc2)c2ccccc12)C(=O)N[C@@H](CO)C(N)=O [Example 230] | 31.4 nM | 6.5 nM | – | – |
| CC(C)(C)[C@H](NC(=O)c1nn(Cc2ccc(F)cc2)c2ccccc12)C(=O)NCCc1nnc(C(N)=O)o1 [Example 231] | – | – | 5.12 nM | 2.25 nM |
| CC(C)(C)[C@H](NC(=O)c1nn(Cc2ccc(F)cc2)c2ccccc12)C(=O)N1CCN(CC(O)CO)CC1 (stereo partly drawn) [Example 233] | – | – | 11.5 nM | 2.45 nM |
| COC(=O)[C@@H](CO)NC(=O)[C@@H](NC(=O)c1nn(Cc2ccc(F)cc2)c2ccccc12)C(C)(C)C [Example 234] | 36.1 nM | 13.4 nM | – | – |
| COC(=O)[C@H](CO)NC(=O)[C@@H](NC(=O)c1nn(Cc2ccc(F)cc2)c2ccccc12)C(C)(C)C [Example 236] | 3.91 nM | 0.94 nM | – | – |
| COC(=O)[C@@H](O)CNC(=O)[C@@H](NC(=O)c1nn(Cc2ccc(F)cc2)c2ccccc12)C(C)(C)C [Example 238] | 25.7 nM | 6.46 nM | – | – |
| CC(C)(C)[C@H](NC(=O)c1nn(Cc2ccc(F)cc2)c2ccccc12)C(=O)NC(CO)CO [Example 241] | 5.72 nM | 1.65 nM | – | – |
| CC(C)(C)[C@H](NC(=O)c1nn(Cc2ccc(F)cc2)c2ccccc12)C(=O)N1CCOCC1 [Example 242] | 3.37 nM | 0.36 nM | – | – |
| CC(C)(C)[C@H](NC(=O)c1nn(Cc2ccc(C#N)cc2)c2ccccc12)C(=O)N1CCOCC1 [Example 243] | 91.3 nM | 11.3 nM | – | – |
| CC(C)(C)[C@H](NC(=O)c1nn(Cc2ccc(F)cc2)c2ccccc12)C(=O)N1CCN(S(C)(=O)=O)CC1 [Example 244] | – | – | 16.2 nM | 2.42 nM |
| CC(C)(C)[C@H](NC(=O)c1nn(Cc2ccc(F)cc2)c2ccccc12)C(=O)N1CCN(S(=O)(=O)C2CC2)CC1 [Example 245] | – | – | 12.4 nM | 2.61 nM |
| CC(C)(C)[C@H](NC(=O)c1nn(Cc2ccc(F)cc2)c2ccccc12)C(=O)N[C@H](CO)C(N)=O [Example 246] | 69 nM | 6.58 nM | – | – |
| CC(C)(C)[C@H](NC(=O)c1nn(Cc2ccc(F)cc2)c2ccccc12)C(=O)N1C[C@@H](O)[C@H](O)C1 [Example 247] | 0.95 nM | 0.65 nM | – | – |
| CC(C)(C)[C@H](NC(=O)c1nn(Cc2ccc(F)cc2)c2ccccc12)C(=O)N1CCOC(CO)C1 (stereo partly drawn) [Example 249] | 16.3 nM | 2.51 nM | – | – |

| SMILES | EC50 [1, 3] | Ki ([2]; CB1 Ki) | EC50 [1, 4] | Ki ([2]; read-out: CB1 Ki) |
| --- | --- | --- | --- | --- |
| CC(C)(C)[C@H](NC(=O)c1nn(Cc2ccc(F)cc2)c2ccccc12)C(=O)NC[C@H]1CCCC[C@H]1O [Example 250] | – | – | 18.1 nM | 3.72 nM |
| CC(C)(C)[C@H](NC(=O)c1nn(Cc2ccc(F)cc2)c2ccccc12)C(=O)N1CCCC(O)C1 (stereo partly drawn) [Example 251] | 2.33 nM | 0.51 nM | – | – |
| CC(C)(C)[C@H](NC(=O)c1nn(Cc2ccc(F)cc2)c2ccccc12)C(=O)NC[C@H]1CCCC[C@@H]1O [Example 253] | – | – | 26 nM | 4.5 nM |
| CC(C)(C)[C@H](NC(=O)c1nn(Cc2ccc(C(F)(F)F)cc2)c2ccccc12)C(N)=O [Example 254] | 153 nM | 12.3 nM | – | – |
| CC(C)(C)[C@H](NC(=O)c1nn(Cc2ccc(C(F)(F)F)cc2)c2ccccc12)C(=O)NCCO [Example 255] | 130 nM | 13.1 nM | – | – |
| CC(C)(C)[C@H](NC(=O)c1nn(Cc2ccc(F)cc2)c2ccccc12)C(=O)N1CCN(CC(N)=O)CC1 [Example 262] | – | – | 38.9 nM | 8.25 nM |
| CC(C)(C)[C@H](NC(=O)c1nn(Cc2ccccc2)c2ccccc12)C(=O)NCCNS(=O)(=O)c1ccc(C#N)cc1 [Example 263] | – | – | 100 nM | 8.36 nM |
| CC(C)(C)[C@H](NC(=O)c1nn(Cc2ccc(C#N)cc2)c2ccccc12)C(=O)NCCNS(=O)(=O)c1ccc(C#N)cc1 [Example 264] | – | – | 103 nM | 6.75 nM |
| CC(C)(C)[C@H](NC(=O)c1nn(Cc2ccc(C#N)cc2F)c2ccccc12)C(=O)NCCNS(=O)(=O)c1ccc(C#N)cc1 [Example 265] | – | – | 82 nM | 13.1 nM |
| CC(C)(C)[C@H](NC(=O)c1nn(Cc2ccc(F)cc2)c2ccccc12)C(=O)NCCNS(=O)(=O)c1ccc(C#N)cc1 [Example 266] | – | – | 4.34 nM | 0.94 nM |
| CC(C)(C)[C@H](NC(=O)c1nn(Cc2ccc(F)cc2)c2ccccc12)C(=O)NCC#N [Example 270] | 2.62 nM | 0.76 nM | – | – |
| CC(C)(C)[C@H](NC(=O)c1nn(Cc2ccc(F)cc2)c2ccccc12)C(=O)NCCC#N [Example 271] | 24.9 nM | 2.91 nM | – | – |
| CC(C)(C)[C@H](NC(=O)c1nn(Cc2ccc(F)cc2)c2ccccc12)C(=O)NC1CCOC1 (stereo partly drawn) [Example 281] | 37.4 nM | 4.83 nM | – | – |
| CC(C)(C)[C@H](NC(=O)c1nn(Cc2ccc(F)cc2)c2c(F)c(F)ccc12)C(N)=O [Example 282] | 0.78 nM | 0.17 nM | – | – |
| CC(C)(C)[C@H](NC(=O)c1nn(Cc2ccc(F)cc2)c2ccccc12)C(=O)N1C[C@@H](O)[C@@H](O)C1 [Example 284] | 12.3 nM | 1.03 nM | – | – |
| CC(C)(C)[C@H](NC(=O)c1nn(Cc2ccc(C#N)cc2)c2c(F)cccc12)C(=O)N[C@@H]1CCc2ccccc21 [Example 286] | – | – | 36.1 nM | 5.74 nM |
| CC(C)(C)[C@H](NC(=O)c1nn(Cc2ccc(F)cc2)c2ccccc12)C(=O)N[C@H]1CC[C@@H](O)C1 [Example 288] | 9.53 nM | 1.18 nM | – | – |
| CC(C)(C)[C@H](NC(=O)c1nn(Cc2ccc(F)cc2)c2ccccc12)C(=O)N[C@@H]1CC[C@@H](O)C1 [Example 289] | 35.8 nM | 5.13 nM | – | – |
| CC(C)(C)[C@H](NC(=O)c1nn(Cc2ccc(F)cc2)c2ccccc12)C(=O)N1CCC[C@H]1C(N)=O [Example 292] | 19 nM | 5.25 nM | – | – |
| CC(C)(C)[C@H](NC(=O)c1nn(Cc2ccc(C#N)cc2)c2cc(F)ccc12)C(=O)NCCO [Example 295] | 64.3 nM | 9.17 nM | – | – |
| CC(C)(C)[C@H](NC(=O)c1nn(Cc2ccc(C#N)cc2)c2cc(F)ccc12)C(=O)NC1CC1 [Example 299] | 23.8 nM | 8.56 nM | – | – |
